Data reported in paper PMC4634704 (Bioorganic & medicinal chemistry letters, 2015).
Like-named read-outs stand apart in the source and are kept apart here.

Columns and labels:
[1] = Terminal brain and plasma levels from AHL studies
[2] = Rat plasma stability; conditions: 4 h incubation; 37 °C
[3] = Rat IV cassette PK; conditions: male, Sprague-Dawley, in vivo, 0.2 mg/kg
[4] = rat, cited from earlier work
[5] = Hepatic microsomal intrinsic clearance, human; conditions: predicted hepatic clearance
[6] = Hepatic microsomal intrinsic clearance, rat; conditions: predicted hepatic clearance
[7] = tested on: mGlu1-4,6-8; test: mGlu family selectivity; format: cell-based; conditions: selectivity versus other mGlu family members
[8] = biological target: mGlu5 (Homo sapiens, UniProt P41594); test: Allosteric agonism in cell lines over expressing mGlu5; format: cell-based
Chain of mGlu5 (Homo sapiens, UniProt P41594) (P41594 21-1212): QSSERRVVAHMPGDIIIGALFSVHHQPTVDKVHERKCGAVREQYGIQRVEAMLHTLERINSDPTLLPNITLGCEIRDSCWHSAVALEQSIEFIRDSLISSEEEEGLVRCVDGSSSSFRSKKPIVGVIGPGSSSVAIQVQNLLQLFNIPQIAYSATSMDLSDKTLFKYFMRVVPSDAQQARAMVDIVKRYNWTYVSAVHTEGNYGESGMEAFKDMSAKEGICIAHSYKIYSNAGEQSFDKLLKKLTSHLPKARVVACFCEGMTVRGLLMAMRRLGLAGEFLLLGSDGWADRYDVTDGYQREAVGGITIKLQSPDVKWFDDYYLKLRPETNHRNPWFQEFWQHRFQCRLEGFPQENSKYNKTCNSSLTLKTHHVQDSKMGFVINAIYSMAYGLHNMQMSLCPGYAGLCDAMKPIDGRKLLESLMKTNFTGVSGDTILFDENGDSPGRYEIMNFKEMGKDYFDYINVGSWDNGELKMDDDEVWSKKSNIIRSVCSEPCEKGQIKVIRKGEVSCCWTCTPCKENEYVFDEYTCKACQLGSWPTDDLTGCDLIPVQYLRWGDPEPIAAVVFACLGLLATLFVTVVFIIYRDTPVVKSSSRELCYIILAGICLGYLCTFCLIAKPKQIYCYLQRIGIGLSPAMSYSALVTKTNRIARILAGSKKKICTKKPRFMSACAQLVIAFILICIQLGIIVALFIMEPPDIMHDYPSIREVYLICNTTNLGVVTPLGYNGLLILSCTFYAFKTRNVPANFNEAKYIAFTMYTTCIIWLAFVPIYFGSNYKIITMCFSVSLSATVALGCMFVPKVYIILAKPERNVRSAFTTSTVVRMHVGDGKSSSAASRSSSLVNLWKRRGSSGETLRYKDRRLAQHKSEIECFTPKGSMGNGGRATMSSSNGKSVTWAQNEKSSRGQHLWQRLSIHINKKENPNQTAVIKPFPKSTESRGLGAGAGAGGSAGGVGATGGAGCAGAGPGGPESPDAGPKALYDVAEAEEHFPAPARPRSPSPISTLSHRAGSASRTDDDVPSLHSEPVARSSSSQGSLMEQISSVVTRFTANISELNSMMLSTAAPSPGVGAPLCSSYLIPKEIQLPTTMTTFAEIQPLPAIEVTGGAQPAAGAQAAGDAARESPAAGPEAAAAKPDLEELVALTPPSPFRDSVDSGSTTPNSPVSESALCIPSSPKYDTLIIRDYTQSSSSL

[9] = biological target: mGlu5 (Rattus norvegicus, UniProt P31424); test: Allosteric agonism in rat astrocytes; format: cell-based; conditions: mGlu5 endogenously expressed
Chain of mGlu5 (Rattus norvegicus, UniProt P31424) (P31424 21-1203): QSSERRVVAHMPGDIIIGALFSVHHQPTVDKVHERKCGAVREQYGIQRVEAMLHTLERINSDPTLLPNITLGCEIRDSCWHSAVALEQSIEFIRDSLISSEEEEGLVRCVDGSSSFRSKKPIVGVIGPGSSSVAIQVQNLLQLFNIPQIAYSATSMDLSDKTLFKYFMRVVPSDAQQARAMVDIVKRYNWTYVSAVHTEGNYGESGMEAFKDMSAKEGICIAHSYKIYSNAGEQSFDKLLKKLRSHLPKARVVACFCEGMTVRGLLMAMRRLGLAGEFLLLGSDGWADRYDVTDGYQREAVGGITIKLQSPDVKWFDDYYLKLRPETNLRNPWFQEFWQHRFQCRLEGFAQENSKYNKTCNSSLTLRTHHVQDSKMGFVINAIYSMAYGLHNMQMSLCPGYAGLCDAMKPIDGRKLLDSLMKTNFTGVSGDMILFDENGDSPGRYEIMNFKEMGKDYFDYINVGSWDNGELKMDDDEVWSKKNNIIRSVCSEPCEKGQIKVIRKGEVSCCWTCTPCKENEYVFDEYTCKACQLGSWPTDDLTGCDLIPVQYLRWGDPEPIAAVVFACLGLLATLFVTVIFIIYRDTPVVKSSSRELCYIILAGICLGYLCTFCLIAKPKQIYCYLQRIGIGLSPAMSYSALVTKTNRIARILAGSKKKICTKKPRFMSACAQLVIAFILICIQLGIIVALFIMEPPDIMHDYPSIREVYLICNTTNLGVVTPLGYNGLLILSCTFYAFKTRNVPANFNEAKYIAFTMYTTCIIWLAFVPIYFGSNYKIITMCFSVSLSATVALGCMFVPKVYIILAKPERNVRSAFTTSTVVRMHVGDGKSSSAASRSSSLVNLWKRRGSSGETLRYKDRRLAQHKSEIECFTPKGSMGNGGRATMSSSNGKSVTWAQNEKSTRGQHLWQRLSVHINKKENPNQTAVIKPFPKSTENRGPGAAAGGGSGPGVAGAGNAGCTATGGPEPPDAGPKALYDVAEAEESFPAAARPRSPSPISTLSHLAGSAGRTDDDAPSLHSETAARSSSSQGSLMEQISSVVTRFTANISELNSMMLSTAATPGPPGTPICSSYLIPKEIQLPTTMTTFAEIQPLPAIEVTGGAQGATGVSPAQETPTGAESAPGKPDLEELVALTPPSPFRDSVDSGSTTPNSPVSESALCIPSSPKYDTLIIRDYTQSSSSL

[10] = Simulated gastric fluid solubility and stability; conditions: 1 h, 37 °C
[11] = Stability in vehicle formulation; format: physicochemical; conditions: 20% β-CD pH 6, 4 mg/mL, up to five days
[12] = tested on: 68 distinct GPCRs, ion channels and transporters; test: Broad panel ancillary screen; format: binding; conditions: 68 targets, Eurofins Inc.
[13] = Discrete dog PK
[14] = Discrete rat PK
[15] = tested on: major CYP450 enzymes; test: CYP450 inhibition
[16] = Rat modified Irwin study / acute CNS behavioural observation
[17] = 30 days, 360 mg/kg/day, IND-enabling

For `CC(=O)N1CCCn2nc(COc3ccccc3F)cc21` [12a], the terminal brain concentration ([1]; AHL 10 mg/kg PO, T90, rat) was “not detected”, the rat plasma stability [2] was “stable” and the clearance [3] was over 70 mL/min/kg.
In the case of `O=C(c1ccc(F)cc1)N1CCc2nc(COc3ccccc3)oc2C1` [compound 1], the neurotoxicity ([4]; 14 day oral dose-limiting study, 450 mg/kg/day) is listed as “no neurotoxicity was observed”, the exposure ([4]; 14 day, 450 mg/kg/day) is listed as 273-440 μM-h and the “Fluoro-Jade C staining” value [4, 17] is listed as “induced Fluoro-Jade C staining in a small number of rats”. The exposure [4, 17] was 253-416 μM-h.
With `CC(=O)N1CCCn2nc(COc3cccc(F)c3)cc21` [12b] the “CLhep (h)” value [5] was over 12 mL/min/kg and the “CLhep (r)” value [6] was over 35 mL/min/kg.
In the case of `CC(=O)N1CCCn2nc(COc3ccccc3)cc21` [9a, 1-(2-(phenoxymethyl)-6,7-dihydropyrazolo[1,5-a]pyrimidin-4(5H)-yl)ethanone], the “terminal estimated unbound brain concentration” value ([1]; AHL 3 mg/kg PO, rat) is reported as 199 nM, the “CLhep (h)” value [5] is reported as over 12 mL/min/kg and the “FS at mGlu1-4,6-8” value [7] is reported as under 1.2. For the same molecule, the “CLhep (r)” value [6] was over 35 mL/min/kg, the rat plasma stability [2] was “stable” and the allosteric agonism [8] was “no allosteric agonism was detected”. For the same molecule, the clearance [3] was over 70 mL/min/kg, the allosteric agonism [9] was “no allosteric agonism was detected” and the “decomposition in simulated gastric fluid” value [10] was under 5%. For the same molecule, the “decomposition in vehicle formulation” value [11] was under 5%, the “activity in broad panel ancillary screen” value [12] was “no noted activity” and the bioavailability [13] was “low bioavailability”. For the same molecule, the clearance [13] was “moderate to high”, the exposure ([13]; IV and oral) was “poor exposure” and the clearance [14] was “moderate to high”. It also gave an IC50 [15] of over 30 µM, a brain concentration ([16]; 56.6 mg/kg, rat) of 113 µM and a safety window ([16]; modified Irwin concentrations versus AHL MED) of at least 100 fold. For the same molecule, the “behaviour across 30 autonomic and somatomotor endpoints” value ([16]; modified Irwin, 30 mg/kg PO, rat) was “no observable alterations in behavior” and the concentration at 1 h ([16]; rat, in vivo, 30 mg/kg, est. Cb,u, 30 mg/kg PO, 1.0 h post-dose) was 36 µM.
